Test results published in ChEMBL document CHEMBL5050846 (2020).
Calls of active or inactive are those of the source. The calls are words filed in the database; no cut-off is given here.

Key:
[1] = Cmax in rat; format: ADME; details: in vivo
[2] = Brain to plasma ratio in rat; format: ADME; details: read-out: BPR
[3] = Half-life in rat; format: ADME; details: in vivo
[4] = AUClast in rat; format: ADME; parameters: time 0 - last; details: in vivo
[5] = Tmax in rat; format: ADME; details: in vivo
Rattus norvegicus [6] = experiment: Protection against harmaline-induced tremor in rats at 10 mg/kg; format: functional, organism-based
Rattus norvegicus [7] = format: functional, organism-based; details: dose 100.0 mg/kg
CYP3A5 = CYP3A5 (Homo sapiens, UniProt P20815); experiment: Inhibition of recombinant human CYP3A5 in human liver microsomes at 1 uM relative to control; format: ADME
CYP3A5, sequence (P20815 whole entry): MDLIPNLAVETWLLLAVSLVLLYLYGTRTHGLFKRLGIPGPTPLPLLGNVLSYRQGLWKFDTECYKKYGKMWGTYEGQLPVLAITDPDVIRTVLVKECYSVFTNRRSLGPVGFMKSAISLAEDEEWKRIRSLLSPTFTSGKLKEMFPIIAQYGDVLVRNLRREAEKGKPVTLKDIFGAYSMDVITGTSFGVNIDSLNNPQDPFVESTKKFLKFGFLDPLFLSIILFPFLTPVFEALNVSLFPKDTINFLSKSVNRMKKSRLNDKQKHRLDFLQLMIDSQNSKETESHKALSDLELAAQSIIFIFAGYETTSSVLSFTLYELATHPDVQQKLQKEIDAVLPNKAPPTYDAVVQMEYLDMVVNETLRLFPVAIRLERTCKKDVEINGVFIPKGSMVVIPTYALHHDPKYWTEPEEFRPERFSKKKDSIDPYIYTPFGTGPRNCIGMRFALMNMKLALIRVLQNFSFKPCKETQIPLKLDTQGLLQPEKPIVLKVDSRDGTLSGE

Rattus norvegicus [8] = experiment: Effect on neurobehavioral function in female rats at 30 to 3000 mg/kg, po; format: toxicity, organism-based; details: in vivo, dose 30-3000 mg/kg
[9] = Toxicity in female Sprague-Dawley rats at 10 to 1000 mg/kg, po; format: organism-based; details: rat, in vivo, dose 10-1000 mg/kg
[10] = Toxicity in rabbits at 30 to 1000 mg/kg, po assessed as developmental toxicity; format: organism-based, Oryctolagus cuniculus; details: rabbit, in vivo, dose 30-1000 mg/kg
Rattus norvegicus [11] = experiment: Effect on neurobehavioral function in female rats at 30 mg/kg, po administered a single dose at 2 hrs; format: toxicity, organism-based; details: in vivo
Rattus norvegicus [12] = experiment: Effect on respiratory function in female rats assessed as increase in PenH at 300 to 2000 mg/kg, po; format: toxicity, organism-based; details: in vivo, dose 300-2000 mg/kg
Canis familiaris [13] = experiment: Effect on core body temperature in dogs at 2 to 300 mg/kg, iv; format: toxicity, organism-based, Canis lupus familiaris; details: dog, in vivo, dose 2-300 mg/kg
[14] = Toxicity in Sprague-Dawley rats at 30 to 1000 mg/kg, po assessed as developmental toxicity; format: organism-based; details: rat, in vivo, dose 30-1000 mg/kg
Hepatocyte = experiment: Induction of […] mRNA production in primary human hepatocytes at 10 uM relative to control; format: functional, cell-based
Rattus norvegicus [15] = experiment: Effect on neurobehavioral function in female rats at 30 mg/kg, po administered a single dose at 24 hrs; format: toxicity, organism-based; details: in vivo
Rattus norvegicus [16] = experiment: Protection against amphetamine-induced psycho-motor activity in rat at 1 to 10 mg/kg, po; format: functional, organism-based; details: dose 1-10 mg/kg
Canis familiaris [17] = experiment: Effect on QRS duration of heart in dogs at 10 mg/kg, iv; format: toxicity, organism-based, Canis lupus familiaris; details: dog, in vivo
[18] = Oral bioavailability in dog at 0.5 mg/kg; format: ADME, organism-based, Canis lupus familiaris; details: in vivo
Canis familiaris [19] = experiment: Effect on QTc interval of heart in dogs at 2 to 300 mg/kg, iv; format: toxicity, organism-based, Canis lupus familiaris; details: dog, in vivo, dose 2-300 mg/kg
[20] = Toxicity in Sprague-Dawley rats at 30 to 1000 mg/kg, po assessed as maternal toxicity; format: organism-based; details: rat, in vivo, dose 30-1000 mg/kg
[21] = Induction of CYP3A4 mRNA production in primary human hepatocytes at 10 uM relative to control; format: functional, Hepatocyte
[22] = Toxicity in rats at 10 to 1000 mg/kg, po assessed as developmental toxicity; format: organism-based; details: rat, in vivo, dose 10-1000 mg/kg
[23] = Toxicity in female Sprague-Dawley rats at 10 to 1000 mg/kg, po assessed as effect on fertility; format: organism-based; details: rat, in vivo, dose 10-1000 mg/kg
[24] = Brain concentration in male rats at 25 mg/kg, po at 2 hrs using 1% methylcellulose; format: ADME, organism-based; details: rat, read-out: Drug uptake
Rattus norvegicus [25] = format: functional, organism-based; details: dose 3-30 mg/kg
Rattus norvegicus [26] = experiment: Effect on neurobehavioral function in female rats assessed as increase in foot splay width at 15 mg/kg, po administered a single dose; format: toxicity, organism-based; details: in vivo
[27] = Plasma concentration in male rats at 25 mg/kg, po at 2 hrs using 1% methylcellulose; format: ADME, organism-based; details: rat
[28] = Brain concentration in male rats at 25 mg/kg, po at 2 hrs using 90% PEG400; format: ADME, organism-based; details: rat, read-out: Drug uptake
Rattus norvegicus [29] = species: Rattus norvegicus; experiment: Effect on sleep architecture of rats assessed as increase in rapid eye movement sleep late in sleep period; format: functional, organism-based
Canis familiaris [30] = experiment: Effect on QTc interval of heart in dogs at 10 mg/kg, iv; format: toxicity, organism-based, Canis lupus familiaris; details: dog, in vivo
[31] = Half-life in dog at 0.5 mg/kg, po; format: ADME, organism-based, Canis lupus familiaris; details: in vivo
CYP3A4 = CYP3A4 (Homo sapiens, UniProt P08684); experiment: Inhibition of recombinant human CYP3A4 in human liver microsomes at 1 uM relative to control; format: ADME
CYP3A4, sequence (P08684 whole entry): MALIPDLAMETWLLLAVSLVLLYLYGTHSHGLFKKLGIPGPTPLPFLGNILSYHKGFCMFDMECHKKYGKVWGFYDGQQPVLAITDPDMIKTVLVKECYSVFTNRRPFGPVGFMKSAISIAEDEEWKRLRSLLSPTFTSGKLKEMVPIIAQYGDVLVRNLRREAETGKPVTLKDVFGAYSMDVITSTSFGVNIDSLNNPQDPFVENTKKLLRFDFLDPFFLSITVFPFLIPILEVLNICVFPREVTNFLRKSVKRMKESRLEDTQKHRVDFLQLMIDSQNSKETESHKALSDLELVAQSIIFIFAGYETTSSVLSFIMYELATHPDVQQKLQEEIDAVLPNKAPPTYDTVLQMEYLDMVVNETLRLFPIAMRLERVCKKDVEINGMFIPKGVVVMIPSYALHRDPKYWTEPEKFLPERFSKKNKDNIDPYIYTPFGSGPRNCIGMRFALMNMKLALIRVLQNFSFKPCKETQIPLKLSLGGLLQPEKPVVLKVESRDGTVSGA

Canis familiaris [32] = experiment: Effect on QRS duration of heart in dogs at 2 to 300 mg/kg, iv; format: toxicity, organism-based, Canis lupus familiaris; details: dog, in vivo, dose 2-300 mg/kg
[33] = Toxicity in Sprague-Dawley rats at 30 to 2000 mg/kg, po assessed as micronuclei induction in bone marrow; format: organism-based; details: rat, in vivo, dose 30-2000 mg/kg
Rattus norvegicus [34] = species: Rattus norvegicus; experiment: Effect on sleep architecture of rats assessed as increase in slow wave sleep; format: functional, organism-based
[35] = Toxicity in rabbits at 30 to 1000 mg/kg, po assessed as maternal toxicity; format: organism-based, Oryctolagus cuniculus; details: rabbit, in vivo, 672 h, dose 30-1000 mg/kg, time 4 weeks
[36] = Clearance in dog at 0.5 mg/kg, po; format: ADME, organism-based, Canis lupus familiaris; details: in vivo
[37] = biological target: T1, pregnane X receptor (PXR, NR1I2) (Homo sapiens, UniProt O75469); experiment: Activation of human pregnane X receptor at 10 uM relative to control; details: read-out: Activity
T1 sequence (O75469 whole entry): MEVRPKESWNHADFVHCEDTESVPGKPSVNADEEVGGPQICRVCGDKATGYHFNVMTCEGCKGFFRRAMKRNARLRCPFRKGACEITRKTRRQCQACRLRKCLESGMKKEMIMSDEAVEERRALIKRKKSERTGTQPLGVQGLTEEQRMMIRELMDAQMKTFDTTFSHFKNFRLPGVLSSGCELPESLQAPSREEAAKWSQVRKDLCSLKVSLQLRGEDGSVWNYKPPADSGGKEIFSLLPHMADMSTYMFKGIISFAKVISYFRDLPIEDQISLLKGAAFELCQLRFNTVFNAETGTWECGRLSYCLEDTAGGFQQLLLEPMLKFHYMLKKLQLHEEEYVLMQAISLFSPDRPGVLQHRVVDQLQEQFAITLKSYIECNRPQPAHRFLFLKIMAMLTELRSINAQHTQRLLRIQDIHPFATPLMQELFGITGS

[38] = Toxicity in Beagle dogs at 3 to 300 mg/kg, po measured by 10-day extrapolatory dose-range finding study; format: organism-based, Canis lupus familiaris; details: dog, in vivo, 240 h, dose 3-300 mg/kg
Rattus norvegicus [39] = experiment: Effect on respiratory function in male rats assessed as change in airway resistance at 6 mg/kg, iv; format: toxicity, organism-based; details: in vivo
Rattus norvegicus [40] = species: Rattus norvegicus; experiment: Effect on sleep architecture of rats assessed as decrease in rapid eye movement sleep early in sleep period; format: functional, organism-based
Canis familiaris [41] = experiment: Effect on heart rate in dogs at 10 mg/kg, iv; format: toxicity, organism-based, Canis lupus familiaris; details: dog, in vivo
Canis familiaris [42] = experiment: Effect on PR interval of heart in dogs at 2 to 300 mg/kg, iv; format: toxicity, organism-based, Canis lupus familiaris; details: dog, in vivo, dose 2-300 mg/kg
Rattus norvegicus [43] = format: functional, organism-based; details: dose 10.0 mg/kg
Rattus norvegicus [44] = experiment: Effect on respiratory function in female rats assessed as increase in PenH at 30 mg/kg, po; format: toxicity, organism-based; details: in vivo
[45] = Plasma concentration in male rats at 25 mg/kg, po at 2 hrs using 90% PEG400; format: ADME, organism-based; details: rat
Canis familiaris [46] = experiment: Effect on blood pressure in dogs at 2 to 300 mg/kg, iv; format: toxicity, organism-based, Canis lupus familiaris; details: dog, in vivo, dose 2-300 mg/kg

N#Cc1ccc([C@@]2(C3CC3)c3cc(Cl)ccc3NC(=O)N2CC(F)(F)F)cc1
Cmax [1]: 3 µM
Kp [2]: 1.1
half-life [3]: 5.9 h

C[C@@H](NC(=O)Cc1ccc(C2CC2)cc1)c1ccc(OCC(F)(F)F)cn1
Cmax [1]: 7.5 µM
Kp [2]: 0.27
AUC(0-t) [4]: 30 µM·h
Tmax [5]: 0.3 h
half-life [3]: 1.5 h

CC1(C)C[C@@H](CN2CCC(F)(CNC(=O)c3cc(Cl)cc(Cl)c3)CC2)CCO1
Activity (Rattus norvegicus [6]): Active

CCC1(C)CC(=O)NC1=O (configuration not stated)
Activity (Rattus norvegicus [7]): Active

CC(C)c1ccc(CC(=O)N[C@H](C)c2ccc(OCC(F)(F)F)cn2)cc1 [SUVECALTAMIDE]
inhibition at 1 µM (CYP3A5): > 80%
Activity (Rattus norvegicus [8]): Non-Toxic
NOAEL [9]: 100 mg/kg/day
Activity [10]: Toxic
Activity (Rattus norvegicus [11]): Non-Toxic
Activity (Rattus norvegicus [12]): Non-Toxic
Activity (Canis familiaris [13]): Non-Toxic
Activity [14]: Toxic
Activity (Hepatocyte): Active
Activity (Rattus norvegicus [15]): Non-Toxic
Activity (Rattus norvegicus [16]): Active
Activity (Canis familiaris [17]): Non-Toxic
bioavailability [18]: 47%
Activity (Canis familiaris [19]): Non-Toxic
Activity [20]: Toxic
Activity [21]: <=10%
Activity [22]: Non-Toxic
NOAEL [23]: ≥ 1000 mg/kg/day
concentration at 2 h [24]: 3.1 µM
Activity (Rattus norvegicus [25]): Active
Activity (Rattus norvegicus [26]): Toxic
concentration at 2 h [27]: 6.3 µM
concentration at 2 h [28]: 1.8 µM
Activity (Rattus norvegicus [29]): Active
Activity (Canis familiaris [30]): Non-Toxic
t1/2 [31]: 3.1 h
inhibition at 1 µM (CYP3A4): > 80%
Activity (Canis familiaris [32]): Non-Toxic
Activity [33]: Non-Toxic
Activity (Rattus norvegicus [34]): Active
Activity [35]: Toxic
CL/F [36]: 0.4 mL/min/kg
activity at 10 µM [37]: ≤ 34%
Activity [38]: Non-Toxic
Activity (Rattus norvegicus [39]): Non-Toxic
Activity (Rattus norvegicus [40]): Active
Activity (Canis familiaris [41]): Non-Toxic
Activity (Canis familiaris [42]): Non-Toxic
Activity (Rattus norvegicus [43]): Active
Activity (Rattus norvegicus [44]): Non-Toxic
concentration at 2 h [45]: 3.3 µM
Activity (Canis familiaris [46]): Non-Toxic
